Data: ChEMBL document CHEMBL4422697, “Structural Characterization of Cranberry Arabinoxyloglucan Oligosaccharides” (J Nat Prod, 2019)
Calls of active or inactive are those of the source. The calls are words filed in the database; no cut-off is given here.

Assays:
[1] = tested on: Mycobacterium intracellulare; assay: Growth inhibition of Mycobacterium intracellulare ATCC 23068 at 50 ug/ml relative to control; format: organism-based; conditions: in vivo
[2] = tested on: Escherichia coli; assay: Antiadhesive activity against P-fimbriated Escherichia coli ATCC 700928 assessed as inhibition of bacterial adhesion to human HTB4 cells incubated for 30 mins in presence of [3H]uridine prior to infection measured after 1 hr by scintillation counting method; format: functional, organism-based
[3] = tested on: Pichia kudriavzevii; assay: Growth inhibition of Candida krusei ATCC 6258 at 50 ug/ml relative to control; format: organism-based; conditions: in vivo
[4] = tested on: MDA-MB-231; assay: Cytotoxicity against human MDA-MB-231 cells assessed as reduction in cell viability at 10 to 100 uM after 48 hrs by sulforhodamine B assay; format: cell-based; conditions: mda-mb-231, 48 h
[5] = tested on: Plasmodium falciparum; assay: Growth inhibition of Plasmodium falciparum D6 at 15.9 ug/ml relative to control; format: organism-based; conditions: in vivo
[6] = tested on: Leishmania donovani; assay: Growth inhibition of Leishmania donovani at 80 ug/ml relative to control; format: organism-based; conditions: in vivo
[7] = tested on: Cryptococcus neoformans; assay: Growth inhibition of Cryptococcus neoformans ATCC 90113 at 50 ug/ml relative to control; format: organism-based; conditions: in vivo
[8] = tested on: Aspergillus fumigatus; assay: Growth inhibition of Aspergillus fumigatus ATCC 204305 at 50 ug/ml relative to control; format: organism-based; conditions: in vivo
[9] = tested on: Candida albicans; assay: Growth inhibition of Candida albicans ATCC 90028 at 50 ug/ml relative to control; format: organism-based; conditions: in vivo
[10] = tested on: Escherichia coli; assay: Growth inhibition of Escherichia coli ATCC 35218 at 50 ug/ml relative to control; format: organism-based; conditions: in vivo
[11] = tested on: Staphylococcus aureus; assay: Growth inhibition of methicillin-[…] Staphylococcus aureus ATCC 33591 at 50 ug/ml relative to control; format: organism-based; conditions: in vivo
[12] = tested on: T47D; assay: Cytotoxicity against human T47D cells assessed as reduction in cell viability at 10 to 100 uM after 48 hrs by sulforhodamine B assay; format: cell-based
[13] = tested on: Staphylococcus aureus; assay: Growth inhibition of Staphylococcus aureus ATCC 29213 at 50 ug/ml relative to control; format: organism-based; conditions: in vivo
[14] = tested on: Pseudomonas aeruginosa; assay: Growth inhibition of Pseudomonas aeruginosa ATCC 27853 at 50 ug/ml relative to control; format: organism-based; conditions: in vivo
[15] = tested on: Nakaseomyces glabratus; assay: Growth inhibition of Candida glabrata ATCC 90030 at 50 ug/ml relative to control; format: organism-based; conditions: in vivo

| Structure (SMILES) | growth inhibition (GI) [1] [%] | inhibition [2] | growth inhibition (GI) [3] [%] | Activity [4] | growth inhibition (GI) [5] [%] | growth inhibition (GI) [6] [%] | growth inhibition (GI) [7] [%] | growth inhibition (GI) [8] [%] | growth inhibition (GI) [9] [%] | growth inhibition (GI) [10] [%] | growth inhibition (GI) [11] [%] | Activity [12] | growth inhibition (GI) [13] [%] | growth inhibition (GI) [14] [%] | growth inhibition (GI) [15] [%] |
| --- | --- | --- | --- | --- | --- | --- | --- | --- | --- | --- | --- | --- | --- | --- | --- |
| OC[C@@H]1O[C@@H](O[C@H]2[C@@H](OC[C@H]3O[C@@H](O)[C@H](O)[C@@H](O)[C@@H]3O[C@@H]3O[C@H](CO)[C@@H](O[C@@H]4O[C@H](COC5OC[C@@H](O)[C@H](O)[C@H]5O)[C@@H](O[C@@H]5O[C@H](CO)[C@@H](O)[C@H](O)[C@H]5O)[C@H](O)[C@H]4O)[C@H](O)[C@H]3O)OC[C@@H](O)[C@@H]2O)[C@H](O)[C@H]1O (single isomer, unassigned) | < 50 | inactive | < 50 | Non-Toxic | < 50 | < 50 | < 50 | < 50 | < 50 | < 50 | < 50 | Non-Toxic | < 50 | < 50 | < 50 |
| OC[C@@H]1O[C@@H](O[C@H]2[C@@H](OC[C@H]3O[C@@H](O)[C@H](O)[C@@H](O)[C@@H]3O[C@@H]3O[C@H](CO)[C@@H](O[C@@H]4O[C@H](COC5OC[C@@H](O)[C@H](O)[C@H]5O[C@@H]5O[C@@H](CO)[C@H](O)[C@H]5O)[C@@H](O[C@@H]5O[C@H](CO)[C@@H](O)[C@H](O)[C@H]5O)[C@H](O)[C@H]4O)[C@H](O)[C@H]3O)OC[C@@H](O)[C@@H]2O)[C@H](O)[C@H]1O (single isomer, unassigned) | < 50 | inactive | < 50 | Non-Toxic | < 50 | < 50 | < 50 | < 50 | < 50 | < 50 | < 50 | Non-Toxic | < 50 | < 50 | < 50 |
